Source: patent US20240252454A1, “COMPOSITION COMPRISING AN INHIBITOR OF MITOCHONDRIAL TRANSCRIPTION” (LEAD DISCOVERY CENTER GMBH, priority 2021, published 2024)
Where two headings read alike, the source gives them in different places.

Tests used:
Assay in all cases: CellTiter-GLO (CTG) assay, combinatorial matrix
Format in all cases: cell-based
[1] = test system: primary human blood cells (PBMC); details: Homo sapiens, PBMC, hPBMCs, 72 hours, IMT at the μM of c0, untreated control =100%, read-out: Measured residual activity (cellular ATP content)
Method: (§1) To determine the in vitro cellular viability, cellular ATP concentrations were measured using a luminescence-based homogenous assay format, as described here. […] Optimal cell density for each cell line was determined to guarantee linearity. For viability assays with compounds, cells were then seeded at a density of 200 to 1000 per well in 25 μl in 384-well plates (Greiner Bio-One, Frickenhausen, Germany). After overnight incubation at 37° C./5% CO2, 25 nl or 75 nl compounds were added to each sample well by using BIOMEK FXP Laboratory Automation Workstation (Beckman Coulter, USA). Wells with cells and 0.1% or 0.3% DMSO in culture medium were used as positive controls, wells with cells and 10 μM staurosporine (Selleck Chemicals, Huston, USA) in culture medium were used as negative controls. Upon incubation with compounds for 72 h at 37° C./5% CO2 25 μl Cell Titer Glo reagent (Promega, Madison, USA, European Pat. No. 1131441, U.S. Pat. Nos. 7,083,911, 7,452,663 and 7,732,128) 1:2 diluted with cell culture medium) was added to each well to determine cell viability. 384well-plates were placed for 2 min on an orbital microplate shaker and incubated for further 10 min at room temperature resulting in a stabilization of light signal. Luminescence was measured by Envision Plate Reader (Perkin Elmer, USA).
(§2) All in vitro cell culture experiments were carried out under near physiological glucose concentrations (5 mM) in at least two independent replicates.
(§3) To establish the method described, N,N-dimethyl-2-[4-(o-tolyl)-2-oxo-chromen-7-yl]oxy-propanamide, (3S)-1-[2-[4-(2-chloro-4-fluoro-phenyl)-2-oxo-chromen-7-yl]oxypropanoyl]piperidine-3-carboxylic acid, (3S)-1-[(2R)-2-[4-(2-chloro-4-fluoro-phenyl)-2-oxo-chromen-7-yl]oxypropanoyl]piperidine-3-carboxylic acid and BAY-876 were first examined with regard to their effect on the cell growth of twelve different tumour cell lines and the IC50 values were determined. This initial study was followed by validation experiments in a matrix format and in the CTG assay, as described under Example 1), in two tumour cell lines from uterine and ovarian carcinoma (HEC59 and A2780), as well as in primary human blood cells (PBMC) (Table 7).
(§4) Combinations of one concentration of IMT (μM; y-axis) and 30 μM-33 nM BAY-876 (x-axis) were incubated for 72 hours with HEC59, hPBMCs or A2780 and then the cellular ATP-content was determined using the CellTiter-GLO assay format. A: Measured residual activity (%) based on an untreated control group (=100%). B: The combinatorial indices are provided, based on the reference groups treated with the corresponding concentration of only one inhibitor class, according to Berenbaum and Cou & Talalay. <1=synergism, 1-2=additivity, 2>=antagonism.

[2] = test system: HEC59; details: HEC59, 72 hours, IMT at the μM of c0, untreated control =100%, read-out: Measured residual activity (cellular ATP content)
Method: as §1, §2, §3, §4

[3] = test system: A2780; details: for combination of IMT and PARPi compared to treatment with just the PARPi alone: A2780, CTG matrix, 30 μM to 10 nM IMT (3S)-1-[(2R)-2-[4-(2-chloro-4-fluoro-phenyl)-2-oxo-chromen-7-yl]oxypropanoyl]piperidine-3-carboxylic acid + 30 μM to 40 nM of the labelled PARPi
Method: as §1, §2

Cc1c(NC(=O)c2cc(C(N)=O)nc3cc(F)ccc23)c(C(F)(F)F)nn1Cc1ccc(C#N)cc1 [BAY-876]
activity at 0.04 µM ([1]; BAY-876 0.04 μM): 104%
activity at […] ([1]; BAY-876 0.12 μM): 109%
activity at […] ([1]; BAY-876 0.37 μM): 90%
activity at 3.33 µM ([1]; BAY-876 3.33 μM): 98%
activity at 10 µM ([1]; BAY-876 10 μM): 87%
activity at 30 µM ([1]; BAY-876 30 μM): 101%
activity at 0.041 µM ([2]; BAY-876 0.041 μM): 74%
activity at 0.123 µM ([2]; BAY-876 0.123 μM): 59%
activity at […] ([2]; BAY-876 0.370 μM): 58%
activity at 1.111 µM ([2]; BAY-876 1.111 μM): 32%
activity at […] ([2]; BAY-876 3.3 μM): 18%
activity at 10 µM ([2]; BAY-876 10 μM): 11%
activity at 30 µM ([2]; BAY-876 30 μM): 8%
activity at 0.04 µM ([3]; Homo sapiens, A2780, 72 hours, BAY-876 0.04 μM, IMT at the μM of c0, untreated control =100%, read-out: Measured residual activity (cellular ATP content)): 88%
activity at 0.123 µM ([3]; Homo sapiens, A2780, 72 hours, BAY-876 0.123 μM, IMT at the μM of c0, untreated control =100%, read-out: Measured residual activity (cellular ATP content)): 78%
activity at […] ([3]; Homo sapiens, A2780, 72 hours, BAY-876 0.37 μM, IMT at the μM of c0, untreated control =100%, read-out: Measured residual activity (cellular ATP content)): 90%
activity at 3.33 µM ([3]; Homo sapiens, A2780, 72 hours, BAY-876 3.33 μM, IMT at the μM of c0, untreated control =100%, read-out: Measured residual activity (cellular ATP content)): 78%
activity at 10 µM ([3]; Homo sapiens, A2780, 72 hours, BAY-876 10 μM, IMT at the μM of c0, untreated control =100%, read-out: Measured residual activity (cellular ATP content)): 51%
activity at 30 µM ([3]; Homo sapiens, A2780, 72 hours, BAY-876 30 μM, IMT at the μM of c0, untreated control =100%, read-out: Measured residual activity (cellular ATP content)): 10%

CNCc1ccc(-c2[nH]c3cc(F)cc4c3c2CCNC4=O)cc1 [Rucaparib]
combination of IMT and PARPi compared to treatment with just the PARPi alone [3]: advantage of the combination
activity at 0.04 µM ([3]; Homo sapiens, A2780, 72 hours, Rucaparib 0.04 μM, IMT (3S)-1-[(2R)-2-[4-(2-chloro-4-fluoro-phenyl)-2-oxo-chromen-7-yl]oxypropanoyl]piperidine-3-carboxylic acid at the μM of c0, untreated control =100%, read-out: Measured residual activity (cellular ATP content)): 90%
activity at 0.1 µM ([3]; Homo sapiens, A2780, 72 hours, Rucaparib 0.1 μM, IMT (3S)-1-[(2R)-2-[4-(2-chloro-4-fluoro-phenyl)-2-oxo-chromen-7-yl]oxypropanoyl]piperidine-3-carboxylic acid at the μM of c0, untreated control =100%, read-out: Measured residual activity (cellular ATP content)): 70%
activity at 0.4 µM ([3]; Homo sapiens, A2780, 72 hours, Rucaparib 0.4 μM, IMT (3S)-1-[(2R)-2-[4-(2-chloro-4-fluoro-phenyl)-2-oxo-chromen-7-yl]oxypropanoyl]piperidine-3-carboxylic acid at the μM of c0, untreated control =100%, read-out: Measured residual activity (cellular ATP content)): 42%
activity at 1.1 µM ([3]; Homo sapiens, A2780, 72 hours, Rucaparib 1.1 μM, IMT (3S)-1-[(2R)-2-[4-(2-chloro-4-fluoro-phenyl)-2-oxo-chromen-7-yl]oxypropanoyl]piperidine-3-carboxylic acid at the μM of c0, untreated control =100%, read-out: Measured residual activity (cellular ATP content)): 21%
activity at […] ([3]; Homo sapiens, A2780, 72 hours, Rucaparib 3.3 μM, IMT (3S)-1-[(2R)-2-[4-(2-chloro-4-fluoro-phenyl)-2-oxo-chromen-7-yl]oxypropanoyl]piperidine-3-carboxylic acid at the μM of c0, untreated control =100%, read-out: Measured residual activity (cellular ATP content)): 6%
activity at 10 µM ([3]; Homo sapiens, A2780, 72 hours, Rucaparib 10 μM, IMT (3S)-1-[(2R)-2-[4-(2-chloro-4-fluoro-phenyl)-2-oxo-chromen-7-yl]oxypropanoyl]piperidine-3-carboxylic acid at the μM of c0, untreated control =100%, read-out: Measured residual activity (cellular ATP content)): 0%
activity at 30 µM ([3]; Homo sapiens, A2780, 72 hours, Rucaparib 30 μM, IMT (3S)-1-[(2R)-2-[4-(2-chloro-4-fluoro-phenyl)-2-oxo-chromen-7-yl]oxypropanoyl]piperidine-3-carboxylic acid at the μM of c0, untreated control =100%, read-out: Measured residual activity (cellular ATP content)): 0%

C[C@]1(c2nc3c(C(N)=O)cccc3[nH]2)CCCN1 [Veliparib]
combination of IMT and PARPi compared to treatment with just the PARPi alone [3]: advantage of the combination
activity at 0.04 µM ([3]; Homo sapiens, A2780, 72 hours, Veliparib 0.04 μM, IMT (3S)-1-[(2R)-2-[4-(2-chloro-4-fluoro-phenyl)-2-oxo-chromen-7-yl]oxypropanoyl]piperidine-3-carboxylic acid at the μM of c0, untreated control =100%, read-out: Measured residual activity (cellular ATP content)): 99%
activity at 0.1 µM ([3]; Homo sapiens, A2780, 72 hours, Veliparib 0.1 μM, IMT (3S)-1-[(2R)-2-[4-(2-chloro-4-fluoro-phenyl)-2-oxo-chromen-7-yl]oxypropanoyl]piperidine-3-carboxylic acid at the μM of c0, untreated control =100%, read-out: Measured residual activity (cellular ATP content)): 99%
activity at 0.4 µM ([3]; Homo sapiens, A2780, 72 hours, Veliparib 0.4 μM, IMT (3S)-1-[(2R)-2-[4-(2-chloro-4-fluoro-phenyl)-2-oxo-chromen-7-yl]oxypropanoyl]piperidine-3-carboxylic acid at the μM of c0, untreated control =100%, read-out: Measured residual activity (cellular ATP content)): 97%
activity at 1.1 µM ([3]; Homo sapiens, A2780, 72 hours, Veliparib 1.1 μM, IMT (3S)-1-[(2R)-2-[4-(2-chloro-4-fluoro-phenyl)-2-oxo-chromen-7-yl]oxypropanoyl]piperidine-3-carboxylic acid at the μM of c0, untreated control =100%, read-out: Measured residual activity (cellular ATP content)): 89%
activity at […] ([3]; Homo sapiens, A2780, 72 hours, Veliparib 3.3 μM, IMT (3S)-1-[(2R)-2-[4-(2-chloro-4-fluoro-phenyl)-2-oxo-chromen-7-yl]oxypropanoyl]piperidine-3-carboxylic acid at the μM of c0, untreated control =100%, read-out: Measured residual activity (cellular ATP content)): 85%
activity at 10 µM ([3]; Homo sapiens, A2780, 72 hours, Veliparib 10 μM, IMT (3S)-1-[(2R)-2-[4-(2-chloro-4-fluoro-phenyl)-2-oxo-chromen-7-yl]oxypropanoyl]piperidine-3-carboxylic acid at the μM of c0, untreated control =100%, read-out: Measured residual activity (cellular ATP content)): 43%
activity at 30 µM ([3]; Homo sapiens, A2780, 72 hours, Veliparib 30 μM, IMT (3S)-1-[(2R)-2-[4-(2-chloro-4-fluoro-phenyl)-2-oxo-chromen-7-yl]oxypropanoyl]piperidine-3-carboxylic acid at the μM of c0, untreated control =100%, read-out: Measured residual activity (cellular ATP content)): 6%
